The source of these data is patent publication US8889711B2, “Pyrazolopyridine derivatives as anticancer agent” (Pierre Fabre Medicament, priority 2009, dated 2014).

SMILES strings stand for the structures.

The first assay relates to karpas 299 cells. The experiment in a line: Measurement of inhibition of cell proliferation (Karpas), ATPlite. The class given is cell-based. Conditions: Homo sapiens, KARPAS-299, 72 h. The method, then: Measurement of Inhibition of Cell Proliferation (Karpas):
The antiproliferative activities of the compounds were measured using the ATPlite technique (Perkin Elmer).
The non-adhering cells (karpas 299) are seeded in 96-well plates (300 000 cells/ml) on Day 1 at a concentration compatible with logarithmic growth for 72 hours required for evaluation of the compounds. All the cells are treated on Day 1, then placed in an incubator at 37° C. under 5% CO2 atmosphere. Cell viability is evaluated on Day 4 by assay of released ATP, characteristic of viable cells. The IC50 values are determined by non-linear regression on the basis of a sigmoid model of dose/response relationship, Hill's slope coefficient being left variable, performed using GraphPad software sequence with the supplied algorithm.
On the technique in general: Cellular ATP, detected with luciferase, serves as a proxy for viable cell number.
In general, IC50 refers to the concentration at which inhibition is half-maximal. With `Cc1c(C#N)c(-c2ccc(O)cc2F)nc2[nH]nc(-c3ccc(N4CCN(C)CC4)nc3)c12` [Compound 115], the IC50 is 1000 to 10000 nM.
Still for that read-out and setting: as for `Cc1n[nH]c2nc(-c3ccc(O)cc3F)c(C#N)c(-c3ccc(N(C)C)cc3)c12` [Compound 116], the figure is 1000 to 10000 nM; as for `N#Cc1c(-c2ccc(O)cc2F)nc2[nH]ncc2c1-c1ccc(Br)o1` [Compound 117], 100 to 1000 nM.
Consider `Cc1c(C#N)c(-c2ccc(O)cc2F)nc2[nH]nc(-c3ccc(N4CCNCC4)cc3)c12` [Compound 118], for which the IC50 lay within 1000 to 10000 nM.
The same measure, in the same setting: as for `Cc1c(C#N)c(-c2ccc(O)cc2F)nc2[nH]nc(-c3ccc(N(C)CCN(C)C)nc3)c12` [Compound 119], the figure is 1000 to 10000 nM; as for `Cc1cc(-c2n[nH]c3nc(-c4ccc(O)cc4F)c(C#N)c(C)c23)no1` [Compound 120], 1000 to 10000 nM.
Regarding `N#Cc1c(-c2ccc(O)cc2F)nc2[nH]nc(N)c2c1-c1ccc(N2CCNCC2)cc1` [Compound 121], the concentration for half-maximal inhibition (IC50) fell in the range of 1000 to 10000 nM.
Turning to `Cc1n[nH]c2nc(-c3ccc(O)cc3F)c(C#N)c(-c3ccc(N4CC[C@@H](N)C4)o3)c12` [Compound 122], the half-maximal inhibitory concentration (IC50) is 1000 to 10000 nM.
Consider `CNC1CCN(c2ccc(-c3n[nH]c4nc(-c5ccc(O)cc5F)c(C#N)c(C)c34)cn2)C1` (stereo not drawn) [Compound 123], for which the IC50 was in the range of 1000 to 10000 nM.
Same read-out and setting: as for `Cc1n[nH]c2nc(-c3ccc(O)cc3F)c(C#N)c(-c3ccc(N4CC[C@@H](N)C4)nc3)c12` [Compound 124], the figure is 1000 to 10000 nM.
Consider `CNC1CCN(c2ccc(-c3c(C#N)c(-c4ccc(O)cc4F)nc4[nH]nc(C)c34)o2)C1` (stereo not drawn) [Compound 130], for which the half-maximal inhibitory concentration (IC50) fell in the range of 100 to 1000 nM.
Molecule `Cc1n[nH]c2nc(-c3ccc(O)cc3F)c(C#N)c(-c3ccc(N4CCNCC4)nc3)c12` [Compound 131] returned an IC50 of 1000 to 10000 nM.
`CCN(CC)CCSc1ccc(-c2c(C#N)c(-c3ccc(O)cc3F)nc3[nH]nc(C)c23)o1` [Compound 132] came in with an IC50 above 10000 nM.
For the molecule `Cc1n[nH]c2nc(-c3ccc(O)cc3F)c(C#N)c(-c3ccc(N4CCC(N)CC4)o3)c12` [Compound 133], the 50% inhibitory concentration (IC50) lay in the range of 100 to 1000 nM.
The molecule `Cc1n[nH]c2nc(-c3ccc(O)cc3F)c(C#N)c(-c3ccc(N4CC[C@H](N)C4)o3)c12` [Compound 134] had a 50% inhibitory concentration (IC50) of 1000 to 10000 nM.
Same read-out and setting: as for `Cc1n[nH]c2nc(-c3ccc(O)cc3F)c(C#N)c(C(=O)NN3CCN(C)CC3)c12` [Compound 135], the figure is above 10000 nM; as for `Cc1n[nH]c2nc(-c3ccc(O)cc3F)c(C#N)c(C(=O)NCCN3CCOCC3)c12` [Compound 136], above 10000 nM; as for `Cc1n[nH]c2nc(-c3ccc(O)cc3F)c(C#N)c(-c3ccc(S(=O)(=O)O)o3)c12` [Compound 137], above 10000 nM.
On the same count and under the same terms, then `Cc1n[nH]c2nc(-c3ccc(O)cc3F)c(C#N)c(C3C[C@@H]3C(=O)NCC3CCNCC3)c12` (stereo partly drawn) [Compound 138], with above 10000 nM; and `Cc1n[nH]c2nc(-c3ccc(O)cc3F)c(C#N)c(-c3ccc([N+](=O)[O-])cc3)c12` [Compound 143], with above 10000 nM.
Molecule `Cc1n[nH]c2nc(-c3ccc(O)cc3F)c(C#N)c(C3C[C@@H]3C(=O)N3CCNCC3)c12` (stereo partly drawn) [Compound 146] gave a half-maximal inhibitory concentration (IC50) above 10000 nM.
For the molecule `Cc1n[nH]c2nc(-c3ccc(O)cc3F)c(C#N)c(C3C[C@@H]3C(=O)N3CC[C@@H](N)C3)c12` (stereo partly drawn) [Compound 147], the half-maximal inhibitory concentration (IC50) was above 10000 nM.
For `Cc1n[nH]c2nc(-c3ccc(O)cc3F)c(C#N)c(-c3ccc(C#N)cc3)c12` [Compound 148], the 50% inhibitory concentration (IC50) lay in the range of 1000 to 10000 nM.
As to `Cc1n[nH]c2nc(-c3ccc(O)cc3F)c(C#N)c(-c3cnc(N)s3)c12` [Compound 150], the half-inhibitory concentration (IC50) is above 10000 nM.

In a further assay the target is ALK kinase (Homo sapiens, UniProt Q9UM73). The assay is described as follows: Test to measure ALK kinase inhibition (GST-PLCγ1 substrate, anti-phosphotyrosine ELISA, luminescence). The class given is biochemical. The note with it: ALK kinase 180 ng/ml, 250 μM ATP, 30 minutes at 30° C. The method, then: Test to Measure ALK Kinase Inhibition
Sequence of ALK kinase (Q9UM73 19-1620): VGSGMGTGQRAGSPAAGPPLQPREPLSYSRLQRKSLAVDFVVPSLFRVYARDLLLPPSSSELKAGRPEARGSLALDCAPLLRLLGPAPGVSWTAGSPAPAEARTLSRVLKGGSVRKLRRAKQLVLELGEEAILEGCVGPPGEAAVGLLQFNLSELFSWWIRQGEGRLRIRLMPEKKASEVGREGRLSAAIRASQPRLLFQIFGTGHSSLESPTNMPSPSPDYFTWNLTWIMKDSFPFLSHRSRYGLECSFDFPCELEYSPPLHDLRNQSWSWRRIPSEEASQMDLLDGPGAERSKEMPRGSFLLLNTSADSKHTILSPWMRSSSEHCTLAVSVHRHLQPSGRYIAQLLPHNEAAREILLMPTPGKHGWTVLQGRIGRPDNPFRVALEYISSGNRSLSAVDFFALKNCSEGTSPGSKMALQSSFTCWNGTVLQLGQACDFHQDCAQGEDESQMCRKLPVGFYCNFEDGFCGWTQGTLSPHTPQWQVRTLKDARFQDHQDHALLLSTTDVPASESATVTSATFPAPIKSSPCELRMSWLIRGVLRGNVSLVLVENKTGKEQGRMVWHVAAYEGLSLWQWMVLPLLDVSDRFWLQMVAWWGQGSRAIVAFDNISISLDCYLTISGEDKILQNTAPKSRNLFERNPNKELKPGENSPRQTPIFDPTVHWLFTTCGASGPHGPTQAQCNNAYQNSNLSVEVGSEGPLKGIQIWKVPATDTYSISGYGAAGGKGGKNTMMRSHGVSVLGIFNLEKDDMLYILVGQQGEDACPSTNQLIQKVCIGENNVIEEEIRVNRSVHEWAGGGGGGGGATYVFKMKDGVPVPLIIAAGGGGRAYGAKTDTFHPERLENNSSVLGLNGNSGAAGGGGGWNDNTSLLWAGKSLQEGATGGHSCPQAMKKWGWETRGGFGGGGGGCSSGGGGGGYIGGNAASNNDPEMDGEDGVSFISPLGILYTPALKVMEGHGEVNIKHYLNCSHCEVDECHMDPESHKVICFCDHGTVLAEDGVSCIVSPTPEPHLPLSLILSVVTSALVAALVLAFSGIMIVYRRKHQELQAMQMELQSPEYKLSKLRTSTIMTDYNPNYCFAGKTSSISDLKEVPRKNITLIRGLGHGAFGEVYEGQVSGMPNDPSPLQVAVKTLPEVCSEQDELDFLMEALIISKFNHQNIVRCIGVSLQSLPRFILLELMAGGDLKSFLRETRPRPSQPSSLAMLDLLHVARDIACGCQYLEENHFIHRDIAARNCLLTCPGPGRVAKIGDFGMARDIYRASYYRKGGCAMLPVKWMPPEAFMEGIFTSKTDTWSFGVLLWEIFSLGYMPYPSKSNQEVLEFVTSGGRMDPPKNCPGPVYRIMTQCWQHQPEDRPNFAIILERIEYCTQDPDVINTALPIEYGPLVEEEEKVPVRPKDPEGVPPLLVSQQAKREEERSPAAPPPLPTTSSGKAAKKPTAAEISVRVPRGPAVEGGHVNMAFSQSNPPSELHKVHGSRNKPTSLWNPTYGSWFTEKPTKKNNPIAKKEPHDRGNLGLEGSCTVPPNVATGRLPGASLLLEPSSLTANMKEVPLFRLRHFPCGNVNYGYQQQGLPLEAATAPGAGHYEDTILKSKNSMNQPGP
A ViewPlate (Packard) is incubated with the GST-PLCγ1 substrate (purified recombinant form) at 0.1 mg/ml in phosphate buffer (PBS pH 7.4)(100 μl/well) for one hour under shaking. The plate is then saturated with a blocking solution containing 5% bovine serum albumin (BSA) (SIGMA) in PBS buffer pH 7.4.
After adding the inhibitor at the desired final concentration (usual range of 30 μM to 10 nM), the reaction is conducted by adding the ALK kinase at 180 ng/ml in 13 mM Tris reaction buffer pH 7.5 (SIGMA); 6.5 mM MgCl2 (MERCK); 0.65 mM DiThioThreitol (DTT) (ACROS); 39 mM sodium β-glycerophosphate (TCI); 0.65 mM sodium orthovanadate (SIGMA) and 250 μM ATP (SIGMA). Incubation is carried out for 30 minutes at 30° C. under shaking.
After three washings under shaking in 0.1% PBS/Tween-20 buffer (SIGMA), an anti-phosphotyrosine antibody coupled with HRP (UBI) diluted to 1/1000th in PBS/BSA buffer 5 mg/ml, is incubated for one hour under shaking. After three further washings in 0.1% PBS/Tween-20, the wells are incubated two minutes with 100 μl of SuperSignal ELISA mixture (PIERCE).
The signal is read in luminescent mode using a luminometer (MOLECULAR DEVICES SpectraMax M5e).
On the technique in general: In an ELISA, binding on a coated surface is turned into a signal by an enzyme label.
Turning to `Cc1c(C#N)c(-c2ccc(O)cc2F)nc2[nH]nc(-c3ccc(N4CCN(C)CC4)nc3)c12` [Compound 115], the half-inhibitory concentration (IC50) was 100 to 1000 nM.
Molecule `Cc1n[nH]c2nc(-c3ccc(O)cc3F)c(C#N)c(-c3ccc(N(C)C)cc3)c12` [Compound 116] returned an IC50 of 100 to 1000 nM.
The same measure, in the same setting: then `N#Cc1c(-c2ccc(O)cc2F)nc2[nH]ncc2c1-c1ccc(Br)o1` [Compound 117], with below 100 nM; and `Cc1c(C#N)c(-c2ccc(O)cc2F)nc2[nH]nc(-c3ccc(N4CCNCC4)cc3)c12` [Compound 118], with below 100 nM.
The same measure, in the same setting: then `Cc1c(C#N)c(-c2ccc(O)cc2F)nc2[nH]nc(-c3ccc(N(C)CCN(C)C)nc3)c12` [Compound 119], with 100 to 1000 nM.
On to `Cc1cc(-c2n[nH]c3nc(-c4ccc(O)cc4F)c(C#N)c(C)c23)no1` [Compound 120], for which the IC50 fell in the range of 100 to 1000 nM.
`N#Cc1c(-c2ccc(O)cc2F)nc2[nH]nc(N)c2c1-c1ccc(N2CCNCC2)cc1` [Compound 121]: the IC50 was below 100 nM.
`Cc1n[nH]c2nc(-c3ccc(O)cc3F)c(C#N)c(-c3ccc(N4CC[C@@H](N)C4)o3)c12` [Compound 122] showed a concentration for half-maximal inhibition (IC50) below 100 nM.
Regarding `CNC1CCN(c2ccc(-c3n[nH]c4nc(-c5ccc(O)cc5F)c(C#N)c(C)c34)cn2)C1` (stereo not drawn) [Compound 123], the IC50 is 100 to 1000 nM.
Turning to `Cc1n[nH]c2nc(-c3ccc(O)cc3F)c(C#N)c(-c3ccc(N4CC[C@@H](N)C4)nc3)c12` [Compound 124], the half-inhibitory concentration (IC50) is below 100 nM.
Turning to `CNC1CCN(c2ccc(-c3c(C#N)c(-c4ccc(O)cc4F)nc4[nH]nc(C)c34)o2)C1` (stereo not drawn) [Compound 130], the IC50 was below 100 nM.
As for `Cc1n[nH]c2nc(-c3ccc(O)cc3F)c(C#N)c(-c3ccc(N4CCNCC4)nc3)c12` [Compound 131], the IC50 is 100 to 1000 nM.
Take `CCN(CC)CCSc1ccc(-c2c(C#N)c(-c3ccc(O)cc3F)nc3[nH]nc(C)c23)o1` [Compound 132]: the IC50 was below 100 nM.
The same measure, in the same setting: then `Cc1n[nH]c2nc(-c3ccc(O)cc3F)c(C#N)c(-c3ccc(N4CCC(N)CC4)o3)c12` [Compound 133], with below 100 nM.
`Cc1n[nH]c2nc(-c3ccc(O)cc3F)c(C#N)c(-c3ccc(N4CC[C@H](N)C4)o3)c12` [Compound 134] displayed an IC50 below 100 nM.
Take `Cc1n[nH]c2nc(-c3ccc(O)cc3F)c(C#N)c(C(=O)NN3CCN(C)CC3)c12` [Compound 135]: the IC50 fell in the range of 100 to 1000 nM.
Take `Cc1n[nH]c2nc(-c3ccc(O)cc3F)c(C#N)c(C(=O)NCCN3CCOCC3)c12` [Compound 136]: the half-maximal inhibitory concentration (IC50) lay within 1000 to 10000 nM.
For the molecule `Cc1n[nH]c2nc(-c3ccc(O)cc3F)c(C#N)c(-c3ccc(S(=O)(=O)O)o3)c12` [Compound 137], the concentration for half-maximal inhibition (IC50) is 100 to 1000 nM.
`Cc1n[nH]c2nc(-c3ccc(O)cc3F)c(C#N)c(C3C[C@@H]3C(=O)NCC3CCNCC3)c12` (stereo partly drawn) [Compound 138] registered an IC50 of 100 to 1000 nM.
Still for that read-out and setting: as for `Cc1n[nH]c2nc(-c3ccc(O)cc3F)c(C#N)c(-c3ccc([N+](=O)[O-])cc3)c12` [Compound 143], the figure is 1000 to 10000 nM; as for `Cc1n[nH]c2nc(-c3ccc(O)cc3F)c(C#N)c(C3C[C@@H]3C(=O)N3CCNCC3)c12` (stereo partly drawn) [Compound 146], 100 to 1000 nM; as for `Cc1n[nH]c2nc(-c3ccc(O)cc3F)c(C#N)c(C3C[C@@H]3C(=O)N3CC[C@@H](N)C3)c12` (stereo partly drawn) [Compound 147], 1000 to 10000 nM.
For the molecule `Cc1n[nH]c2nc(-c3ccc(O)cc3F)c(C#N)c(-c3ccc(C#N)cc3)c12` [Compound 148], the IC50 was in the range of 1000 to 10000 nM.
As for `Cc1n[nH]c2nc(-c3ccc(O)cc3F)c(C#N)c(-c3cnc(N)s3)c12` [Compound 150], the IC50 was 100 to 1000 nM.
